Results taken from publication PMC12582971, “NeuproGemp, a polyphenol-rich botanical formula, ameliorates Alzheimer’s-like pathology in APP/PS1 mice via inhibition of human glutaminyl cyclase” (Frontiers in Pharmacology, 2025).

Target: T1, human glutaminyl cyclase (hQC) (Homo sapiens, UniProt Q16769)
T1 construct: covering residues Ala33 to Leu361, was cloned into the pQE-80L expression vector; polyhistidine tag; made in house; host or cells: E. coli BL21 (DE3)
Test: hQC inhibition assay (coupled spectrophotometric, H-Gln-Gln-OH substrate)
Format: biochemical
Conditions: for inhibitory effect on hQC (in words): dose-response assay; for IC50: 0.1 μM hQC, 1 mM H-Gln-Gln-OH, 25 °C, pH 8.0, mean ± SD, three experiments, read-out: IC50 against hQC
Procedure: The coding sequence of human glutaminyl cyclase (hQC), covering residues Ala33 to Leu361, was cloned into the pQE-80L expression vector utilizing the restriction sites BamHI and HindIII. This recombinant plasmid was introduced into E. coli BL21 (DE3) cells through heat shock transformation. For protein expression, the transformed E. coli cells were grown in Luria-Bertani (LB) medium supplemented with 100 mg/L ampicillin at 37 °C. Once the optical density at 600 nm (OD600) reached 0.6, protein expression was induced using 0.1 mM isopropyl β-D-1-thiogalactopyranoside (IPTG), and the culture was incubated at 24 °C for 48 h, optimizing for soluble protein yield under reduced temperature conditions. After induction, the cells were harvested by centrifugation at 6,000 rpm for 20 min. The resulting cell pellet was resuspended in a lysis buffer containing 50 mM Tris-HCl (pH 8.5), 150 mM NaCl, and 20 mM imidazole. Cell disruption was performed using high-pressure homogenization via a microfluidizer (Microfluidics). The lysate was clarified through centrifugation, and the soluble protein fraction was purified using nickel-nitrilotriacetic acid (Ni-NTA) affinity chromatography, leveraging the polyhistidine tag for selective binding to the resin. The bound hQC protein was eluted and further purified using standard chromatographic techniques.
The inhibitory effects of various compounds on human glutaminyl cyclase (hQC) were assessed using a validated spectrophotometric assay. In this assay, glutamic dehydrogenase (EC 1.4.1.3; Sigma-Aldrich) was utilized as a coupling enzyme to indirectly quantify hQC activity, employing H-Gln-Gln-OH (Bachem) as the specific substrate. The reaction mixture consisted of 50 mM Tris-HCl (pH 8.0), 0.25 mM NADH, 30 U of glutamic dehydrogenase, 15 mM α-ketoglutaric acid, and 0.1 μM hQC. Inhibitors were introduced to the reaction mixture and allowed to incubate for 5 min at 25 °C to promote interaction with the enzyme. The enzymatic reaction was initiated by adding 1 mM of the substrate, and the progression was monitored by measuring the absorbance at 340 nm, corresponding to the oxidation of NADH. The IC50 values for the inhibitors were calculated by plotting initial reaction rates against the logarithmic concentrations of the inhibitors. Nonlinear regression fitting was conducted using GraphPad Prism 6 software, enabling accurate quantification of the inhibitors’ potencies and facilitating a detailed analysis of their inhibitory effects on hQC.
The enzymatic activity of recombinant hQC was measured using a coupled spectrophotometric assay with H-Gln-Gln-OH as substrate and glutamic dehydrogenase as a coupling enzyme. […] Initial reaction rates were monitored by measuring NADH oxidation at 340 nm, and IC50 values were calculated using nonlinear regression in GraphPad Prism 6. Data are presented as mean ± SD from three independent experiments. Lower IC50 values indicate stronger inhibition of hQC activity.

T1 sequence (Q16769 33-361): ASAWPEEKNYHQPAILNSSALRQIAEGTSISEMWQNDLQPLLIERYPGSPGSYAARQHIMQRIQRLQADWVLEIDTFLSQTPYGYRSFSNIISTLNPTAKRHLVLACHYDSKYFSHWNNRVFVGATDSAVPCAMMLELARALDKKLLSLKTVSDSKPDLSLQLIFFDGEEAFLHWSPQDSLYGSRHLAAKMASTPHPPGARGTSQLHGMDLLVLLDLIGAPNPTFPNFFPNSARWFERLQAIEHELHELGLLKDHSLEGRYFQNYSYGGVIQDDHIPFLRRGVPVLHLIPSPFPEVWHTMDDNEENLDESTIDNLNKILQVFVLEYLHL

Compound	hQC activity suppression at 100 μM	inhibitory effect on hQC (in words)	IC50 [nM]
O=C(/C=C/c1ccccc1)OC[C@H]1O[C@@H](OC(=O)c2cc(O)c(O)c(O)c2)[C@H](O)[C@@H](O)[C@@H]1O [1-o-galloyl-6-o-cinnamoylglucose]	less than 50%	minimal to no significant inhibition	
O=C(OCC1OC(OC(=O)c2cc(O)c(O)c(O)c2)C(O)C(OC(=O)c2cc(O)c(O)c(O)c2)C1O)c1cc(O)c(O)c(O)c1 (stereo not drawn) [GG3, 1,3,6-Trigalloylglucose]		only weak inhibitory effects	4190
O=C(OCC1OC(OC(=O)c2cc(O)c(O)c(O)c2)C(OC(=O)c2cc(O)c(O)c(O)c2)C(OC(=O)c2cc(O)c(O)c(O)c2)C1O)c1cc(O)c(O)c(O)c1 (stereo not drawn) [GG4, 1,2,3,6-Tetragalloylglucose]			1430
OCc1ccc(O[C@@H]2O[C@H](CO)[C@@H](O)[C@H](O)[C@H]2O)cc1 [Gastrodin]	less than 50%	only weak inhibitory effects	
C[C@@]12C[C@@]3(O)O[C@@H](O1)[C@]1(COC(=O)c4ccccc4)[C@H]3C[C@@]12O[C@@H]1O[C@H](CO)[C@@H](O)[C@H](O)[C@H]1O [Paeoniflorin]	less than 50%	minimal to no significant inhibition	
